Read-outs that look alike come from different tables or passages of the source.
Key:
[1] = tested on: ES-3 Ewing sarcoma cell line; assay: 72 hour cytotoxicity, ES-3; assay type: cell-based; settings: Ewing sarcoma cell line ES-3, 72 hour
Method: (§1) The cytotoxicity of a subgroup of the MTM SA analogues was tested against various Ewing sarcoma cell lines and non-Ewing sarcoma cell lines over a 72 hour period. Each analogue was checked individually with a range of concentrations to determine the IC50 of the molecule in actively growing cell cultures.

[2] = tested on: ES-2 Ewing sarcoma cell line; assay: 72 hour cytotoxicity, ES-2; assay type: cell-based; settings: Ewing sarcoma cell line ES-2, 72 hour
Method: as §1

[3] = tested on: OVCAR-8 non-Ewing sarcoma cell line; assay: 72 hour cytotoxicity, OVCAR-8; assay type: cell-based; settings: non-Ewing sarcoma cell line OVCAR-8, 72 hour
Method: as §1

[4] = tested on: ES-4 Ewing sarcoma cell line; assay: 72 hour cytotoxicity, ES-4; assay type: cell-based; settings: Ewing sarcoma cell line ES-4, 72 hour
Method: as §1

[5] = tested on: DU145 non-Ewing sarcoma cell line; assay: 72 hour cytotoxicity, DU145; assay type: cell-based; settings: non-Ewing sarcoma cell line DU145, 72 hour
Method: as §1

[6] = tested on: HCT-116 non-Ewing sarcoma cell line; assay: 72 hour cytotoxicity, HCT-116; assay type: cell-based; settings: non-Ewing sarcoma cell line HCT-116, 72 hour
Method: as §1

[7] = tested on: VCaP non-Ewing sarcoma cell line; assay: 72 hour cytotoxicity, VCaP; assay type: cell-based
Method: as §1

[8] = tested on: ES-8 Ewing sarcoma cell line; assay: 72 hour cytotoxicity, ES-8; assay type: cell-based; settings: Ewing sarcoma cell line ES-8, 72 hour
Method: as §1

[9] = tested on: PC3 non-Ewing sarcoma cell line; assay: 72 hour cytotoxicity, PC3; assay type: cell-based; settings: non-Ewing sarcoma cell line PC3, 72 hour
Method: as §1

[10] = tested on: TC32 Ewing sarcoma cell line; assay: 72 hour cytotoxicity, TC32; assay type: cell-based; settings: Ewing sarcoma cell line TC32, 72 hour
Method: as §1

[11] = tested on: A549, human non-small cell lung cancer cells; assay: 72 hour cytotoxicity, A549 (resazurin); assay type: cell-based; settings: non-Ewing sarcoma cell line A549, 72 hour
Method: The cytotoxic effects of the side chain modifications of SA were investigated in order to determine whether the modification were beneficial to the drug structure. All cytotoxicity assays were performed with A549, human non-small cell lung cancer cells. A549 cells were cultured as specified from ATCC at 37° C., 5% CO2. The cells were added to a 96 well plate (5,000 cells/well) and permitted to attach for 24 h. After 24 h culture media were replaced with the side chain modified MTM SA derivative containing media at differing concentrations. The cells were incubated with the drug containing media for 72 hrs total (n=8). Cell viability was determined using a resazurin assay that signifies mitochondrial metabolic activity in living cells. […] of a 1 mM resazurin solution in PBS was added to the control and analogue-treated cells at the end of the treatment period. Cell viability was determined three hours later by reading the fluorescence at 560 nm (Ex)/590 nm (Em). The fluorescence signals were quantified using a Spectramax M5 plate reader (Molecular Devices) equipped with a SoftMaxPro software. Cytotoxicity was determined by calculating the half maximal inhibitory concentration (IC50) of each sample.
as §1

[12] = tested on: U118 non-Ewing sarcoma cell line; assay: 72 hour cytotoxicity, U118; assay type: cell-based; settings: non-Ewing sarcoma cell line U118, 72 hour
Method: as §1

TC32 cells = assay: Cell cycle distribution, FACS analysis; assay type: cell-based; settings: 100 nM of drug for 24 hours
Method: FIG. 12(b) is a FACs analysis of TC32 cells treated with 100 nM of drug for 24 hours.
(§2) Studies were conducted using MTM and lead analogs (mithramycin-SK (MTM-SK), mithramycin-SA-tryptophan (MTM-SA-Trp), and mithramycin-SA-phenylalanine (MTM-SA-Phe)). EWS-FLI1 promoter occupancy was investigated using chromatin immune precipitation real time PCR (ChIP-RTPCR). The effect of drug treatment on expression of genes controlled by EWSFLI1 was evaluated by quantitative real-time PCR (qRT-PCR) (FIG. 11). The effect of treatment with 100 nM of drug for 24 hours on cell cycle distribution was also compared among analogs (FIG. 12(b)). […] In addition, the maximum tolerated dose (MTD) and the effect of treatment on plasma total-calcium were used to assess relative toxicity in mice.
(§3) EWS-FLI1 promoter occupancy upstream from Nr0b1, Tgfbr2, and Rcor1 genes was evaluated in Ewing sarcoma cells (TC32 cells) by ChIP-RTPCR. […] (FIG. 11). […] (FIG. 12(a)). Furthermore, the effect of drug treatment appears to lead to differences in cell-cycle progression. […] (FIG. 12(b)).

[13] = tested on: SK-ES-1 Ewing sarcoma cell line; assay: 72 hour cytotoxicity, SK-ES-1; assay type: cell-based; settings: Ewing sarcoma cell line SK-ES-1, 72 hour
Method: as §1

[14] = tested on: 5838 Ewing sarcoma cell line; assay: 72 hour cytotoxicity, 5838; assay type: cell-based; settings: Ewing sarcoma cell line 5838, 72 hour
Method: as §1

[15] = 72 hour cytotoxicity, RH30; assay type: cell-based; settings: Ewing sarcoma cell line RH30, 72 hour; read-out: IC50 (nM) RH 30
Method: as §1

[16] = tested on: RDES Ewing sarcoma cell line; assay: 72 hour cytotoxicity, RDES; assay type: cell-based
Method: as §1

Ewing cell lines = assay: In vitro efficacy, GI50 (72-hr) in Ewing cell lines; assay type: cell-based; settings: Ewing cell lines (n=8)
[17] = molecular target: T1, EWS-FLI1 promoter occupancy upstream from Nr0b1, Tgfbr2, and Rcor1 genes in TC32 cells (Homo sapiens, UniProt Q01543+Q01844); assay: EWS-FLI1 promoter occupancy by ChIP-RTPCR; assay type: cell-based
T1 construct: containing the 5′ region of EWS (Ewing sarcoma breakpoint region 1) and the 3′ ETS region of Fli-1; N-terminal part of EWS (EWSR1, Q01844), natural fusion partner from the translocation; endogenous in cells; host or cells: TC32 Ewing sarcoma cells
Method: as §2, §3

[18] = tested on: genes controlled by EWS-FLI1 in TC32 cells; assay: Expression of genes controlled by EWS-FLI1 by qRT-PCR; assay type: cell-based; settings: 6 hours, dose dependent
Method: FIG. 11A, FIG. 11B, FIGS. 11C, 11D, and 11E provide a series of graphs showing that MTM analogs have increased cytoxicity and distinct cell cycle distribution in Ewing sarcoma. The graphs show relative gene expression in TC32 cells treated with MTM analogs. Three genes controlled by the EWS-FLI1 transcription factor were investigated by qRT-PCR at four different treatment concentrations for 6 hours. CCK served as a negative control.
as §2, §3

[19] = tested on: Ewing sarcoma (TC32, 5838, SKES1) and non-Ewing (A459 (lung) and PC3 (prostate)) cancer cell lines; assay: Selectivity assay, Ewing sarcoma versus non-Ewing cell panel (72 hr cytotoxicity)
[20] = tested on: TC71 Ewing sarcoma cell line; assay: 72 hour cytotoxicity, TC71; assay type: cell-based; settings: Ewing sarcoma cell line TC71, 72 hour
Method: as §1

[21] = tested on: C42 non-Ewing sarcoma cell line; assay: 72 hour cytotoxicity, C42; assay type: cell-based; settings: non-Ewing sarcoma cell line C42, 72 hour
Method: as §1

[22] = tested on: ES-7 Ewing sarcoma cell line; assay: 72 hour cytotoxicity, ES-7; assay type: cell-based; settings: Ewing sarcoma cell line ES-7, 72 hour
Method: as §1

[23] = tested on: A673 Ewing sarcoma cell line; assay: 72 hour cytotoxicity, A673; assay type: cell-based; settings: Ewing sarcoma cell line A673, 72 hour
Method: as §1

[24] = tested on: several cancer cell lines; settings: cited from earlier work

T1 sequence (Q01844+Q01543 fused): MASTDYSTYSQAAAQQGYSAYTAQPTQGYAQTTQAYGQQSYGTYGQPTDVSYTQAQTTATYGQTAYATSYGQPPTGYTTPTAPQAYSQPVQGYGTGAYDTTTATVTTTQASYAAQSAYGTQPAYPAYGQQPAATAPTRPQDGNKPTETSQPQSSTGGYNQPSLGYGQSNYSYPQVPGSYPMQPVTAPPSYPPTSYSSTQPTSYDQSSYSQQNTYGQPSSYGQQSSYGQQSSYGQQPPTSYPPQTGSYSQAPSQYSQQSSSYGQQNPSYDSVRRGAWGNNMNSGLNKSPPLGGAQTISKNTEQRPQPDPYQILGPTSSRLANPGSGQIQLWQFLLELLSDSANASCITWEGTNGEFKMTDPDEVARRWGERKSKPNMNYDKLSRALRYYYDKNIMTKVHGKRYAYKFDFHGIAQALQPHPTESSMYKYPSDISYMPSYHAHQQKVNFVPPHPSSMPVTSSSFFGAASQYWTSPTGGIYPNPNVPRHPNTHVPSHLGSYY

## COC(=O)C(Cc1cccc2[nH]ccc12)NC(=O)[C@@H](OC)[C@@H]1Cc2cc3cc(OC4CC(OC5CC(O)C(O)C(C)O5)C(O)C(C)O4)c(C)c(O)c3c(O)c2C(=O)[C@H]1OC1CC(OC2CC(OC3CC(C)(O)C(O)C(C)O3)C(O)C(C)O2)C(O)C(C)O1 (some centres unmarked) [MTMSA-Trp]
[1]
  IC50: 64 nM
[2]
  IC50: 63 nM
[3]; Homo sapiens
  IC50: 72 nM
[4]
  IC50: 33 nM
[5]; Homo sapiens, DU-145
  IC50: 31 nM
[6]; Homo sapiens
  IC50: 23 nM
[7]; Homo sapiens
  IC50: 20 nM
[8]
  IC50: 40 nM
[9]
  IC50: 45 nM
[10]; Homo sapiens, TC-32
  IC50: 18 nM
[11]; Homo sapiens
  IC50: 87 nM
[12]
  IC50: 56 nM
TC32 cells
  cell cycle distribution: increased S-phase accumulation
[13]; Homo sapiens, SK-ES1
  IC50: 38 nM
[14]
  IC50: 10 nM
[15]
  IC50: 48 nM
[16]; RD-ES
  IC50: 39 nM
Ewing cell lines
  potency (GI50) among Ewing cell lines compared to other analogs: relatively higher potency (lower GI50)
[17]
  effect on FLI1 binding to promoters (ChIP-RTPCR): the most destabilizing
[18]
  rank-order of efficiency of mRNA down-regulation (qRT-PCR): MTM-SA-Trp>MTM=MTM-SK
[19]; FIG. 9, right panel
  selectivity against Ewing sarcoma cells relative to non-Ewing cells: 9 fold
[19]; against Ewing sarcoma cells, relative to MTM
  more potent than MTM: about 3 fold
[19]; relative to MTM, 72 hr
  higher selectivity than MTM against Ewing sarcoma relative to non-Ewing cell lines: 3 fold
[20]; TC-71
  IC50: 34 nM
[21]
  IC50: 96 nM
[22]
  IC50: 41 nM
[23]; Homo sapiens
  IC50: 44 nM

## CO[C@@H]([C@@H]1Cc2cc3cc(O[C@H]4C[C@@H](O[C@H]5C[C@@H](O)[C@H](O)[C@@H](C)O5)[C@H](O)[C@@H](C)O4)c(C)c(O)c3c(O)c2C(=O)[C@H]1O[C@H]1C[C@@H](O[C@H]2C[C@@H](O[C@H]3C[C@](C)(O)[C@H](O)[C@@H](C)O3)[C@@H](O)[C@@H](C)O2)[C@H](O)[C@@H](C)O1)[C@@H](O)C(C)=O [MTMSK, reference compound]
[1]
  IC50: 56 nM
[2]
  IC50: 39 nM
[3]
  IC50: 29 nM
[4]
  IC50: 32 nM
[5]; read-out: IC50 (nM) DU 145
  IC50: 32 nM
[6]
  IC50: 31 nM
[7]
  IC50: 36 nM
[8]
  IC50: 44 nM
[9]
  IC50: 37 nM
[10]; read-out: IC50 (nM) TC 32
  IC50: 23 nM
[11]
  IC50: 30 nM
TC32 cells
  cell cycle distribution: primarily in G1/G2 phase
[13]
  IC50: 25 nM
[14]
  IC50: 23 nM
[24]
  activity compared to the parent MTM: increased activity
[15]
  IC50: 62 nM
[16]
  IC50: 40 nM
[17]
  effect on FLI1 binding to promoters (ChIP-RTPCR): mostly stabilize FLI1
[18]
  rank-order of efficiency of mRNA down-regulation (qRT-PCR): MTM-SA-Trp>MTM=MTM-SK
[20]
  IC50: 31 nM
[21]
  IC50: 89 nM
[22]
  IC50: 42 nM
[23]
  IC50: 37 nM

— US9447135B2, “Semi-synthetic mithramycin derivatives with anti-cancer activity” (UNIVERSITY OF KENTUCKY RESEARCH FOUNDATION, priority 2012, dated 2016)
